The results in this text go back to ChEMBL document CHEMBL1201862, “PubChem BioAssay data set” (2004).

The source made the active and inactive calls.

In assay [1] the target is T1, Microphthalmia-associated transcription factor (Homo sapiens, UniProt O75030).
T1 sequence (O75030 whole entry): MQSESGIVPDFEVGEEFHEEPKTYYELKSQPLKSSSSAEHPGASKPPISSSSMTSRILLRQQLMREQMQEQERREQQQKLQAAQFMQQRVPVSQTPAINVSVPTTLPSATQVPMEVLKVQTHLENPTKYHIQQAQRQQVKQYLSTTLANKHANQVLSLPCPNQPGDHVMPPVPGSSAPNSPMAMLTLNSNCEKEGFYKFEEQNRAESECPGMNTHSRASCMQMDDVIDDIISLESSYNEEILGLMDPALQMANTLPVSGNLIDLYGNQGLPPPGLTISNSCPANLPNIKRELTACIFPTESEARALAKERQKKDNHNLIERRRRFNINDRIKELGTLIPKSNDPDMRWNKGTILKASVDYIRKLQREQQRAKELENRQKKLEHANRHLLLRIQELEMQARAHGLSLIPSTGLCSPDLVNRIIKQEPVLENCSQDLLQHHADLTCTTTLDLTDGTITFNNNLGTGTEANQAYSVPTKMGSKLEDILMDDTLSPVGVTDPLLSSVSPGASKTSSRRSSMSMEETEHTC
Briefly: reducers of TRPM1 reporter luminescence, concentration series – cell-based, SK-MEL-5, cherry-picked, set 3, MITF inhibitor project, dose response (AID 493073).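 Also: SK-MEL-5 melanoma cells with luciferase driven by the MITF target TRPM1 promoter.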 Format: functional.

In the next assay the test system is INS1. Put plainly: INS-1E survival protection against cytokine death – cell-based, luminescence, retest, dose response (AID 449756).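 Also: cell death triggered by IL-1 beta plus TNF-alpha plus IFN-gamma mixture; protective hits raise ATP signal compared with cytokine alone wells.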 Format: functional. The note with it: Rattus norvegicus.
A short description of assay [2]: viability loss in MITF-independent A375 cells – cell-based, CellTiter-Glo luminescence, dry powder, set 7, counter-screen for MITF inhibitor project, dose response (AID 624490). The format is functional. The note with it: A-375.
The nature of assay [3]: growth inhibition of SK-MEL-5 melanoma cells – cell-based, CellTiter-Glo luminescence, dry powder, set 8, orthogonal assay for MITF inhibitor project, dose response (AID 651586). The format is functional. Background: In ATP-based viability assays light output follows the ATP content of the culture.
The nature of assay [4]: cytotoxicity in MITF-independent A375 cells – cell-based, CellTiter-Glo luminescence, dry powder, set 9, counter-screen for MITF modulator project, dose response (AID 651591). The format is functional. The note with it: A-375.
Assay [5] in a line: viability loss in MITF-independent A375 cells – cell-based, CellTiter-Glo luminescence, dry powder, set 2, counter-screen for MITF inhibitor project, dose response (AID 624489).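 Also: actives are compounds lowering A375 viability meaning general cytotoxicity.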 Format: functional. The note with it: A-375.
Assay [6] is described as follows: HPDE-C7 pancreatic duct cell viability loss – fluorescence, HTS (AID 430). Format: functional, cell-based. The note with it: Homo sapiens.
The test system of the next assay is CHO-K1. Briefly: Counterscreen for antagonists of the orexin 1 receptor (OX1R; HCRTR1): Homogeneous time resolved fluorescence (HTRF)-based cell-based dose response assay to identify antagonists of the parental CHO-K1 cell line. [Related pubchem assays (depositor defined):AID434989, AID435008, AID463079, AID485270, AID492963, AID492964, AID492965, AID493232, AID504699, AID504701]. Format: functional. The note with it: Cricetulus griseus. In general terms: A counterscreen serves to expose hits that act by an unwanted route or on another target.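 Also: potency for inhibition of ATP-stimulated IP1 production as antagonists.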

The target in assay [7] is Proto-oncogene tyrosine-protein kinase receptor Ret (Homo sapiens, UniProt P07949). Format: functional.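 Also: measured within a kinome-wide profiling panel, RET as the panel member.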
Assay [8] deals with Ribosomal protein S6 kinase beta-1 (Homo sapiens, UniProt P23443). The format is functional.
The target of assay [9] is Mitogen-activated protein kinase 8 (Homo sapiens, UniProt P45983). The format is functional.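 Also: value comes from one member of a kinome-wide kinase profiling panel.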
Assay [10] deals with Casein kinase I isoform alpha (Homo sapiens, UniProt P48729). The format is functional.
Casein kinase I isoform alpha, sequence (P48729 whole entry, canonical isoform): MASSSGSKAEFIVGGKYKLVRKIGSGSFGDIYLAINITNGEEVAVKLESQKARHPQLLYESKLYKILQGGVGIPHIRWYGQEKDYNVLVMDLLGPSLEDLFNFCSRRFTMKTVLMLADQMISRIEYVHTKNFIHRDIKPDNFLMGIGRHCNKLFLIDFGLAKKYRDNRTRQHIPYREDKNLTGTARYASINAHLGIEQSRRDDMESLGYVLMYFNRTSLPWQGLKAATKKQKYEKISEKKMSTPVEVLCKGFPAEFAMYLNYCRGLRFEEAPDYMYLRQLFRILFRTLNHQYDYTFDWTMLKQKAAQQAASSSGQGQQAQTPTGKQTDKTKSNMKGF
For assay [11], the target named is Mitogen-activated protein kinase 9 (Homo sapiens, UniProt P45984). The format is functional.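 Also: value from a kinome panel profiling assay, MAPK9 panel entry.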
Mitogen-activated protein kinase 9, sequence (P45984 whole entry): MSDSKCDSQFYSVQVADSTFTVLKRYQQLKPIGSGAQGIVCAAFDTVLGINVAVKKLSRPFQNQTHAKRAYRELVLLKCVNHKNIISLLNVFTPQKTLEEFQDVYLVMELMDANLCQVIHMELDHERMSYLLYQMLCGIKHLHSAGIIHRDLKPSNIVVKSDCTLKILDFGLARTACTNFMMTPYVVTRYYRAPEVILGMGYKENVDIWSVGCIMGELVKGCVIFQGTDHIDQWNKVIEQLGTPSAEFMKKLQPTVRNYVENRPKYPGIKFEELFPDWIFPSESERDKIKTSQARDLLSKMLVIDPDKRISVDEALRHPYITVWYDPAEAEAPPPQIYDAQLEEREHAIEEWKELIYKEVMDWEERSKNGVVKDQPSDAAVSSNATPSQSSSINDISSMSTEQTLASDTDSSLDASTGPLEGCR
For the next assay, the target named is Insulin receptor (Homo sapiens, UniProt P06213). The format is functional.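 Also: insulin receptor kinase tested as one member of a kinome-wide kinase panel.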
Assay [12] deals with Non-receptor tyrosine-protein kinase TYK2 (Homo sapiens, UniProt P29597). The format is functional.
Non-receptor tyrosine-protein kinase TYK2, sequence (P29597 whole entry): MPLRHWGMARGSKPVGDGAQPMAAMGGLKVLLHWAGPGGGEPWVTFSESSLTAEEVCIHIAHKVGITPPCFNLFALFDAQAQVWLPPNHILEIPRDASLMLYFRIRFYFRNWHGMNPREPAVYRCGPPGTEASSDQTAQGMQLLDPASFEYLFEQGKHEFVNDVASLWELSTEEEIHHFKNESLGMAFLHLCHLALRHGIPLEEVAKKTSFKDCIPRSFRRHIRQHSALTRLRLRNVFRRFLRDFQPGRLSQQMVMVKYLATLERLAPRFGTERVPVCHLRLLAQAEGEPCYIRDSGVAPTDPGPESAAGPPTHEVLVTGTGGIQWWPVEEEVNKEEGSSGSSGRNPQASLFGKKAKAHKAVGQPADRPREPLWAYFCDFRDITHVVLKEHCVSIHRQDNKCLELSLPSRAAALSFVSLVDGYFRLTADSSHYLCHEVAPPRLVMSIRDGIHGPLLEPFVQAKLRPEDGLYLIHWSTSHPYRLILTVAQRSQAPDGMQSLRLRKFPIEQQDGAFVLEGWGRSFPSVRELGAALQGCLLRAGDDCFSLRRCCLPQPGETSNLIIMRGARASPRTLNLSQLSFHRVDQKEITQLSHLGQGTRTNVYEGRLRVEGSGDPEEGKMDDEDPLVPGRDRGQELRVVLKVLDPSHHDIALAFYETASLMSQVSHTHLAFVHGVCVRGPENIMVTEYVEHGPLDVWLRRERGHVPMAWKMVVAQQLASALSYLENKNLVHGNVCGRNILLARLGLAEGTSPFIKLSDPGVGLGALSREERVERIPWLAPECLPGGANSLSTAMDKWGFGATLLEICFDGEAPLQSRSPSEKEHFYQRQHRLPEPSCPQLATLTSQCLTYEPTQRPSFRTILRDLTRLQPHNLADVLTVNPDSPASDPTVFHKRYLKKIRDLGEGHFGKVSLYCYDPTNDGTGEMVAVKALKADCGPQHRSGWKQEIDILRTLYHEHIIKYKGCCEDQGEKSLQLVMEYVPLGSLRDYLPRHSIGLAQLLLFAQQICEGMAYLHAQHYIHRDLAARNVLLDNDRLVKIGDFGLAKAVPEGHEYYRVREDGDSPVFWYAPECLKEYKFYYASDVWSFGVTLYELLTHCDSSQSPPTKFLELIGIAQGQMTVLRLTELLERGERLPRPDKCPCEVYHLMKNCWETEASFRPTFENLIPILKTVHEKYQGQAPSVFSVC
The target in assay [13] is Vascular endothelial growth factor receptor 2 (Homo sapiens, UniProt P35968). Format: functional.
Vascular endothelial growth factor receptor 2, sequence (P35968 whole entry): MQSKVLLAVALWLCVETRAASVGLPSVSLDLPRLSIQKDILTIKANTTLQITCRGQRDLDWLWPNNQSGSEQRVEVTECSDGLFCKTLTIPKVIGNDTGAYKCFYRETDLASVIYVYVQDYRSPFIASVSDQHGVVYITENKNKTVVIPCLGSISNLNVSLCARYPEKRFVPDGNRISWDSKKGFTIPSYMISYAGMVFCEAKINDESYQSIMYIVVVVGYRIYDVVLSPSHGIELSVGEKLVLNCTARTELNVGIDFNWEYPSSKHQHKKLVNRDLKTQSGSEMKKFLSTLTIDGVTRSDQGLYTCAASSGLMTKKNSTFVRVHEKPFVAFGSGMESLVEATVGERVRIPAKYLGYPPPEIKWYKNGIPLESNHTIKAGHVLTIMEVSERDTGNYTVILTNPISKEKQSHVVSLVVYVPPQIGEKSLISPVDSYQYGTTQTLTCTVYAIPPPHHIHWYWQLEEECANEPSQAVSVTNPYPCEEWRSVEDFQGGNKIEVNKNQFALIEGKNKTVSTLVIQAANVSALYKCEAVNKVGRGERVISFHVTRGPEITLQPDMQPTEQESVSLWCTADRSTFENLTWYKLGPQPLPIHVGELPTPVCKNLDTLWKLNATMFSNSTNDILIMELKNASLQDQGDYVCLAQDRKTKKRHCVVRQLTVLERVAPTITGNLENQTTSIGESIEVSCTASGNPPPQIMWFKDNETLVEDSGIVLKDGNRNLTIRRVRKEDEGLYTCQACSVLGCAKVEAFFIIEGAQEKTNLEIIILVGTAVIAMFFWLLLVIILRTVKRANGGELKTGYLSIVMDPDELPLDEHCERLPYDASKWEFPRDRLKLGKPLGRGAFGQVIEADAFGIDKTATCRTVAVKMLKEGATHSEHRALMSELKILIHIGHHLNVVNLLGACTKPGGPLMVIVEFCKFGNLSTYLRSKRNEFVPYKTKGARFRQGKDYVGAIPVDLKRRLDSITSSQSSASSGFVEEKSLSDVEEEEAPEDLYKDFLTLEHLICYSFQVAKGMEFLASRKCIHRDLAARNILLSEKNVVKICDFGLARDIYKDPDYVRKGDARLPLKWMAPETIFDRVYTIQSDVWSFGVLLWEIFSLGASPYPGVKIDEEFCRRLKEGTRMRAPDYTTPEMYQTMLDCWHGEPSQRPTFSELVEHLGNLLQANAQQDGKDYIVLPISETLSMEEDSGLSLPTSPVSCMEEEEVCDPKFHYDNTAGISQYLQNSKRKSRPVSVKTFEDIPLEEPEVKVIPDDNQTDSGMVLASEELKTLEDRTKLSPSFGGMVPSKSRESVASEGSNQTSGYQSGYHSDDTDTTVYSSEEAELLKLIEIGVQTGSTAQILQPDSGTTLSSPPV
The target of assay [14] is Cyclin-dependent kinase 5 (Homo sapiens, UniProt Q00535). The format is functional.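 Also: CDK5 measured as one member of a kinase profiling panel.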
Assay [15] concerns the target Insulin-like growth factor 1 receptor (Homo sapiens, UniProt P08069). Put plainly: Navigating the Kinome. Panel member name: IGF1R. Format: functional.
The target of assay [16] is Mitogen-activated protein kinase 1 (Homo sapiens, UniProt P28482). Format: functional.
Mitogen-activated protein kinase 1, sequence (P28482 whole entry): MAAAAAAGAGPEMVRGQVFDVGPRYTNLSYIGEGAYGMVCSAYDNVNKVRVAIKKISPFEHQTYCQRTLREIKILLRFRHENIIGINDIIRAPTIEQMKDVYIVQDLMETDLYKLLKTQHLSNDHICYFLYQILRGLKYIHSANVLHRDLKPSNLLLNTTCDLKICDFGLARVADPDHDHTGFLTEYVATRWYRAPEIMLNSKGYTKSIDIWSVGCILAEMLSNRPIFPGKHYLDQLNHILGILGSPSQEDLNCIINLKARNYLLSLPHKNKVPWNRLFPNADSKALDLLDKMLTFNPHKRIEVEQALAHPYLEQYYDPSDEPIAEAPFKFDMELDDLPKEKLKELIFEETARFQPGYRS
For assay [17], the target named is Dual specificity tyrosine-phosphorylation-regulated kinase 4 (Homo sapiens, UniProt Q9NR20). The format is functional.
Assay [18] addresses Vascular endothelial growth factor receptor 3 (Homo sapiens, UniProt P35916). Format: functional.
The target of assay [19] is Cyclin-dependent kinase 1 (Homo sapiens, UniProt P06493). Format: functional.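 Also: Kinome-wide panel profiling, with the target listed as panel member CDC2.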
Assay [20] concerns the target Cyclin-dependent kinase 8 (Homo sapiens, UniProt P49336). Put plainly: Navigating the Kinome. Panel member name: CDK8. The format is functional.

Insulin-like growth factor 1 receptor, sequence (P08069 31-736 limits assumed): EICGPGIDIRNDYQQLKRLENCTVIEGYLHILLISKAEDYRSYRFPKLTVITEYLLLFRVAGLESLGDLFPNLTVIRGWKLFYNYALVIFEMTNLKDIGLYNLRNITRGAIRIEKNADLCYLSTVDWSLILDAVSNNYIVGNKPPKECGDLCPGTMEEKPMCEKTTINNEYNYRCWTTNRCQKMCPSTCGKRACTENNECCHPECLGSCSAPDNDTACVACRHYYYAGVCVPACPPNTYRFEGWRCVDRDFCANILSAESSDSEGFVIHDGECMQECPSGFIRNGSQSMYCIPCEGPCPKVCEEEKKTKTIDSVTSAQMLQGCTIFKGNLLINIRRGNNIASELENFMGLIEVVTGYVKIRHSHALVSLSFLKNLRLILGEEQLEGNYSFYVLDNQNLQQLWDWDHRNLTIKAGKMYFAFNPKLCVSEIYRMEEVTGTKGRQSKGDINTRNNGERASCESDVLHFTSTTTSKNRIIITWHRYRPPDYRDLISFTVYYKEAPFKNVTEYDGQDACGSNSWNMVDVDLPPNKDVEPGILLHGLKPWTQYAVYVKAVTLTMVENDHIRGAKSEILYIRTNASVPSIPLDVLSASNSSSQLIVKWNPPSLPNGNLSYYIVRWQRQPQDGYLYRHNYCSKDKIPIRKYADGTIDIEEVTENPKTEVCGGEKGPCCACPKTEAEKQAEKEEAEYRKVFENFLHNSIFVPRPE
Insulin-like growth factor 1 receptor, sequence (P08069 741-1367 limits assumed): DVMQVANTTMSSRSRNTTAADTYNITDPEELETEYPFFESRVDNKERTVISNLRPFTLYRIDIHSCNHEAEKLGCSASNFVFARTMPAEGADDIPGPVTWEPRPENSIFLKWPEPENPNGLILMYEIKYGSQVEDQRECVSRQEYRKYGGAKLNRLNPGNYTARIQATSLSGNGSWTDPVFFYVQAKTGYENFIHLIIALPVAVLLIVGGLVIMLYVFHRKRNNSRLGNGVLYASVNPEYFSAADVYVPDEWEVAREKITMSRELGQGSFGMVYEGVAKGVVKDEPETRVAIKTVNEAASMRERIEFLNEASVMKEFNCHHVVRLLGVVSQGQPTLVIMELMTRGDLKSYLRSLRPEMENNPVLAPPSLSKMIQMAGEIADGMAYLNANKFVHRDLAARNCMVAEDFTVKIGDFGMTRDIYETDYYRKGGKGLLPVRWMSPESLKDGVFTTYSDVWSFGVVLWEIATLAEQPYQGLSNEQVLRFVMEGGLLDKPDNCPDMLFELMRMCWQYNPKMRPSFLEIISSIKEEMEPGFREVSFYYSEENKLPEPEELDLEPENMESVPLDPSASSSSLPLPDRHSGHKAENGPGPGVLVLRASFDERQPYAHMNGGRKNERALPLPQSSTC

A word on the AC50: it is the midpoint of the concentration-response curve, whichever way the signal moves. With `C=CCNC1=C(Cl)C(=O)c2ccccc2C1=O`, the AC50 was 4.06 µM (active) in assay [1]; 7.64 µM (active) in the assay on INS1; 53.5 µM (active) in [2]; 4.58 µM (active) in assay [3]; > 70 µM (inactive) in [4]; > 70 µM (inactive) in [5].
For orientation: EC50 means the midpoint of the concentration-response curve. `CCOC(=O)C(C(=O)OCC)c1cc(Br)c2noc3c2c1C(=O)c1ccccc1-3`: the EC50 in assay [6] is 3.03 µM (active).
For orientation: IC50 means the concentration needed to halve the response being measured. Consider `CN(C)c1ccc(-c2nnc(-c3cccs3)o2)cc1`, for which, in the assay with CHO-K1, the IC50 is > 66.2 µM (inactive).
In general, Ki refers to a dissociation constant, usually derived from enzyme kinetics or from competition with a known ligand. `COc1ccc(C(=O)Nc2n[nH]c3ccc(-c4cn(Cc5ccccc5)nn4)cc23)cc1OC`: the Ki is 126 nM (active) in assay [7]; 100 nM (active) in assay [8]; 631 nM (active) in [9]; 398 nM (active) in assay [10]; 251 nM (active) in assay [11]; 1.26 µM (active) on Insulin receptor. Also, the Ki was 20 nM (active) in assay [12]; 398 nM (active) in [13]; 12.6 nM (active) in assay [14]; > 2 µM (inactive) in assay [15]; 100 nM (active) in [16]; 6.31 µM (active) in assay [17]. The Ki was 200 nM (active) in [18], 39.8 nM (active) in assay [19] and > 3.98 µM (inactive) in [20].
